# Measurements: patent US20070191324A1, “Methods for treatment or prophylaxis of aldosterone-mediated pathogenic effects in a subject using an epoxy-steroidal aldosterone antagonist” (priority 1999, published 2007)
# Like-named read-outs stand apart in the source and are kept apart here.
# Experiments:
# [1] = tested on: patients uncontrolled with BB or CCB monotherapy; assay: Eplerenone co-administration with CCB or beta-blocker, 8 weeks (Example D-10); assay type: in vivo, human; conditions: for Diastolic Blood Pressure Responder Rates, Percentage of Patients Responding: seDBP <90 mmHg or ≧10 mmHg reduction
# Method: This was a multicenter, double-blind, randomized, placebo-controlled, placebo run-in, parallel-group study. […] The dose was to be increased only once during the study. […] Study assessments at protocol-specified timepoints included BP, heart rate, clinical laboratory analyses, ECG, and concomitant medications. Throughout the study, safety was assessed by routine clinical laboratory analyses, vital signs, physical examinations, 12-lead ECG, and monitoring of adverse events. […] The study was designed to include 60 randomized patients in each group and each cohort.
# [2] = tested on: aldosterone/salt uninephrectomized rats; assay: Myocardial injury in aldosterone/salt uninephrectomized rats (Example A-6); assay type: in vivo, Sprague Dawley rats; conditions: eplerenone in chow 100 mg/k/d; aldosterone 0.75 ug/hr, 1% NaCl
# Method: The rats were then implanted with Alzet mini pump that subcutaneously delivered either aldosterone (0.75 ug/hr) or vehicle. […] Blood pressure was measured by radio telemetry units implanted in abdominal aorta. Rats were sacrificed for examination of the hearts.
# [3] = Single dose pharmacokinetics, Japan and Ex-Japan trials (Example A-11); assay type: in vivo, human; conditions: for Vd/F: male, human, in vivo, oral, single dose, least squares mean, read-out: Vss/F
# Method: A total of 76 European subjects and 38 Japanese subjects participated in the single and multiple dose tolerability and food effect trials. Three of the studies were Ex-Japan studies and included doses ranging from 10 mg to 1000 mg. The other two studies were conducted in Japan and included doses ranging from 50 mg to 600 mg.
# The […] trials included (i) a single dose tolerability trial, and (ii) a multiple dose tolerability trial, and (iii) a food effect study.
# Both single dose and multiple dose tolerability trials were conducted in Japan utilizing healthy male Japanese subjects. […] Six subjects who received the 100 mg dose also participated in the food effect treatment arm of the single dose tolerability trial.
# Combining single dose fasting pharmacokinetic data from all five studies, an analysis of variance with factors for country (Japan, Ex-Japan), study nested within country, and dose were performed on the dose-normalized Cmax and AUC values to assess the effect of country (population). Dose normalization was done to the lowest dose (10 mg for single dose, 100 mg for multiple dose). In the absence of intravenous data, the distribution volume (V/F) and clearance (CL/F) parameters are represented as the apparent values and are normalized to 70 kg of body weight. There were no statistically significant differences between the Japan and Ex-Japan trials in any of the pharmacokinetic parameters analyzed.
# No statistically significant differences were noted between the Japan and ex-Japan population for any of the derived parameters evaluated.
# Each panel consisted of six subjects who were given eplerenone and two subjects who were given placebo.
# saline-drinking SHRSP = assay: Stroke and cerebrovascular damage in saline-drinking SHRSP (Example A-7); assay type: in vivo, rat; conditions: 100 mg/kg/day, up to 18.5 weeks of age
# From the text: Fifteen male, 9 weeks of age, saline-drinking SHRSP were included in the experiment. […] A-12). […] Using a semi-quantitative scoring system from 0-4 for cerebral injury (FIG.
# human subject = assay: Blood pressure, plasma renin activity and serum aldosterone as a function of eplerenone dose (FIG. 10-12); assay type: in vivo; conditions: increasing doses
# From the text: For example, appropriate dosing can be determined by monitoring systolic blood pressure. […] Accordingly, subjects can be treated with doses of one or more epoxy-steroidal compounds according to the present invention by increasing doses of such compounds in a step-wise manner until a minimal levels of systolic blood pressure decrease are achieved while, at the same time, also maintaining serum levels of potassium within the normal range. Similarly, appropriate dosing can also be determined by monitoring diastolic blood pressure. […] Accordingly, subjects can be treated with doses of one or more epoxy-steroidal compounds according to the present invention by increasing doses of such compounds in a step-wise manner until a minimal level of diastolic blood pressure change are achieved while, at the same time, also maintaining serum levels of potassium within the normal range. Appropriate dosing can also be determined by monitoring plasma renin activity. […] Accordingly, subjects can be treated with doses of one or more epoxy-steroidal compounds according to the present invention by increasing doses of such compounds in a step-wise manner until the desired level of plasma renin activity is achieved while, at the same time, maintaining serum levels of potassium within the normal range. Appropriate dosing can also be determined by monitoring serum aldosterone levels. […] Accordingly, subjects can be treated with doses of one or more epoxy-steroidal compounds according to the present invention by increasing doses of such compounds in a step-wise manner until the desired level of serum aldosterone is achieved while, at the same time, also maintaining serum levels of potassium within the normal range.
# [4] = eplerenone 50-100 mg QD, 8 weeks
smiles,measurement,setting,value
"COC(=O)[C@@H]1CC2=CC(=O)CC[C@]2(C)[C@@]23O[C@@H]2C[C@@]2(C)[C@@H](CC[C@@]24CCC(=O)O4)[C@H]13 [Eplerenone, Pregn-4-ene-7,21-dicarboxylic acid, 9,11-epoxy-17-hydroxy-3-oxo-, γ-lactone, methyl ester, (7α, 11α, 17β)-]","Diastolic Blood Pressure Responder Rates, Percentage of Patients Responding","[1]; BB Cohort, Week 2",48 (69.6%)
same,"Diastolic Blood Pressure Responder Rates, Percentage of Patients Responding","[1]; BB Cohort, Week 4",53 (76.8%)
same,"Diastolic Blood Pressure Responder Rates, Percentage of Patients Responding","[1]; BB Cohort, Week 6",56 (81.2%)
same,"Diastolic Blood Pressure Responder Rates, Percentage of Patients Responding","[1]; BB Cohort, Week 8",52 (75.4%)
same,"Diastolic Blood Pressure Responder Rates, Percentage of Patients Responding","[1]; CCB Cohort, Week 2",40 (60.6%)
same,"Diastolic Blood Pressure Responder Rates, Percentage of Patients Responding","[1]; CCB Cohort, Week 4",51 (76.1%)
same,"Diastolic Blood Pressure Responder Rates, Percentage of Patients Responding","[1]; CCB Cohort, Week 6",55 (82.1%)
same,"Diastolic Blood Pressure Responder Rates, Percentage of Patients Responding","[1]; CCB Cohort, Week 8",48 (71.6%)
same,safety and tolerability,[1]; add on anti-hypertensive agent,safe and well tolerated
same,"responders (seDBP <90 mmHg or ≧10 mmHg reduction from Baseline), CCB cohort","[1]; each timepoint, vs placebo",more patients who received eplerenone responded to treatment
same,"responders (seDBP <90 mmHg or ≧10 mmHg reduction from Baseline), BB cohort","[1]; each timepoint, vs placebo (p ≦0.011)",significantly greater proportions of patients who received eplerenone responded to treatment
same,"DBP and SBP, addition to a BB",[1]; [4],efficacious in reducing DBP and SBP
same,"SBP, addition to a CCB",[1]; [4],efficacious in reducing SBP
same,cardiac histopathologic damage,[2],prevents the histopathologic damage
same,clinical lab abnormalities and adverse events,"[3]; healthy Japanese male subjects, single doses 50-600 mg",no adverse events were reported
same,Vd/F,[3]; Ex-Japan,80.6 L
same,Vd/F,[3]; Japan,80.1 L
same,stroke signs,saline-drinking SHRSP,no signs of stroke
same,systolic blood pressure as a function of dose,human subject; FIG. 10,decreased systolic blood pressure
same,diastolic blood pressure as a function of dose,human subject; FIG. 11,decreased diastolic blood pressure
same,plasma renin activity as a function of dose,human subject; FIG. 12,increased levels of plasma renin activity
same,serum aldosterone as a function of dose,human subject; FIG. 12,increased levels of serum aldosterone
